Structures can show the parent of a compound that is named as a salt. Where two headings read alike, the source gives them in different places.

Series [1] in a line: In vitro dissolution (drug release) from 400 mg matrix tablets, USP apparatus II, SGF or SIF. The series is classed as physicochemical. Also on record: T50 (time during which 50% of drug has been released from matrix): unit not given here. As to conditions: for T10 / T50: 1:1.5 PAA/PEO excipient mixture; for T10 / T50 in SIF / T50 values in SIF, PAA/PEO / T50: SIF; for Comments (interaction with PAA): Table 2; for T50 in SGF: modified SGF; for T50 (time during which 50% of drug has been released from matrix): 10 wt. % drug, 400 mg PAA/PEO (1:1.5) tablet, modified SIF; for T50 values in SIF, PAA/PEO: PAA/PEO (1:1.5) formulation, 10% of active. The protocol: Several different formulations with different drugs were manufactured. Drugs were manually mixed with the excipients in a mortar and compressed into 400 mg tablets using Carver press or Oil press with 1000 lb applied force. Flat face 11 mm round tooling was used.
In vitro drug release was measured by in vitro dissolution experiments. […] Drug release was evaluated with either Simulated Gastric Fluid (SGF), pH=1.2 or Simulated Intestinal Fluid (SIF), pH=7.5, both prepared according to USP without enzyme added. Tablet sinkers were applied in all experiments. At predetermined time intervals, a sample was withdrawn from the vessel and assayed using a UV-VIS spectrophotometer at a wavelength of 240 nm.
The release behavior of a large group of basic highly soluble drugs (10 wt. % of drug ) from a directly compressed matrix tablet using 1:1.5 polyacrylic acid/polyethylene oxide (PAA/PEO) mix as excipient was studied under modified Simulated Intestinal Fluid (SIF) conditions.

The conditions of series [2]: cited from earlier work.
The conditions of series [3]: cited from earlier work; for Log P: Table 1; for LogP: Table 4.
A short description of series [4]: In vitro dissolution (drug release) from 400 mg matrix tablets, USP apparatus II, SGF or SIF. It is filed as physicochemical. The conditions noted are these: for T50: negatively charged drugs from negatively charged PAA/PEO matrix; for T50 values in SIF, PAA/Car: PAA/Carrageenan (1:1) formulation, 25% of active.
Where [5] appears, read: Table 1, model drug characteristics.
[6] abbreviates: Table 2, positively charged drugs.

With `CC(C)(C)CC(C)(C)c1ccc(OCCOCC[N+](C)(C)Cc2ccccc2)cc1` [Benzethonium Chloride], in series [1], the T10 was 25 h and the “Comments (interaction with PAA)” value is listed as “Forms insoluble”.

As to `COc1cccc(C2(O)CCCCC2CN(C)C)c1` (centres unmarked) [Tramadol HCl], in series [1] (1:1.5 PAA/PEO), the “T50 in SIF” value came out at 31 h and the “T50 in SGF” value was 8 h. For the same molecule, the “T50 (time during which 50% of drug has been released from matrix)” value in series [1] was 31. Also, the Solubility in series [2] (setting [5]) is above 1000 mg/mL. Also, the “Log P” value in series [3] was 2.5.

Diphenhydramine Citrate: in series [1] (1:1.5 PAA/PEO), the “T50 in SIF” value is 25 h and the “T50 in SGF” value is 12 h.

In the case of `CO[C@@]1(NC(=O)CSCC#N)C(=O)N2C(C(=O)[O-])=C(CSc3nnnn3C)CS[C@@H]21.[Na+]` [sodium cefmatazole], the T50 entry in series [4] was “about 5 hours”.

Regarding `CN(C)CCCN1c2ccccc2CCc2ccccc21` [Imipramine HCl], in series [1], the “T50 (time during which 50% of drug has been released from matrix)” value turned out to be 58. In addition, the Solubility in series [2] (setting [5]) was 500 mg/mL.

As for `CN(C)CCOC(C)(c1ccccc1)c1ccccn1` (centres unmarked) [Doxylamine Succinate], in series [4], the “T50 values in SIF, PAA/Car” value turned out to be 22. In series [1], the “T50 (time during which 50% of drug has been released from matrix)” value is reported as 23 and the “T50 values in SIF, PAA/PEO” value was determined as 23. In series [2] (setting [5]), the Solubility is 1000 mg/mL. In series [3], the “Log P” value was 2.5 and the LogP is listed as 2.5.

In the case of `CCOc1ccccc1OCCN[C@H](C)Cc1ccc(OC)c(S(N)(=O)=O)c1` [Tamsulosin HCl], in series [4], the “T50 values in SIF, PAA/Car” value turned out to be 25. The “T50 values in SIF, PAA/PEO” value in series [1] came out at 26. For the same molecule, the LogP in series [3] is 2.24.

Regarding `C[N+](C)(C)CC(=O)O` [Betaine], in series [1], the T10 turned out to be 6 h and the T50 was 22 h. The Solubility in series [2] (setting [6]) is 650 mg/mL.

`CN(C)CCOC(c1ccccc1)c1ccccc1` [Diphenhydramine HCl]: the “T50 values in SIF, PAA/Car” value in series [4] is 8. Moreover, in series [1], the “T50 (time during which 50% of drug has been released from matrix)” value is recorded as 15 and the “T50 values in SIF, PAA/PEO” value is listed as 15.

`CN[C@@H](C)[C@@H](O)c1ccccc1` [Pseudoephedrine HCl]: the “T50 (time during which 50% of drug has been released from matrix)” value in series [1] turned out to be 4. In addition, in series [3], the “Log P” value is reported as 1.0.

With `CN(C)CCCN1c2ccccc2Sc2ccc(Cl)cc21` [Chlorpromazine HCl], the “T50 (time during which 50% of drug has been released from matrix)” value in series [1] worked out at 56. For the same molecule, the Solubility in series [2] (setting [5]) was 400 mg/mL.

For `CCCCOc1cc(C(=O)OCCN(CC)CC)ccc1N` [Benoxinate HCl], the “T50 values in SIF, PAA/Car” value in series [4] was determined as 23. Moreover, in series [1], the “T50 (time during which 50% of drug has been released from matrix)” value was 22 and the “T50 values in SIF, PAA/PEO” value turned out to be 22. For the same molecule, in series [2] (setting [5]), the Solubility was 1000 mg/mL. Further, in series [3], the “Log P” value is 4.0 and the LogP is 5.2.

For `CNS(=O)(=O)CCc1ccc2[nH]cc(C3CCN(C)CC3)c2c1` [Naratriptan HCl], the “T50 values in SIF, PAA/Car” value in series [4] is listed as 25. Moreover, the “T50 values in SIF, PAA/PEO” value in series [1] amounted to 22. In addition, in series [3], the LogP was 1.8.

With Amitriptuline HCl, the “T50 (time during which 50% of drug has been released from matrix)” value in series [1] amounted to 57.

In the case of `CC1OC2(CS1)CN1CCC2CC1` (centres unmarked) [Cevimeline HCl], in series [1], the “T50 (time during which 50% of drug has been released from matrix)” value is recorded as 4.5. Further, the Solubility in series [2] (setting [5]) is 766 mg/mL. Moreover, the log partition coefficient (Log P) in series [3] is recorded as 1.1.

On to `Cc1ncc(CO)c(CO)c1O.Cl` [Pyridoxine HCl], for which the “T50 (time during which 50% of drug has been released from matrix)” value in series [1] was found to be 4. Also, the “Log P” value in series [3] is −1.9.

On to `Cc1nnc(SCC2=C(C(=O)[O-])N3C(=O)[C@@H](NC(=O)Cn4cnnn4)[C@H]3SC2)s1.[Na+]` [sodium cefazoline], for which the T50 entry in series [4] is “about 5 hours”.

On to `C[N+](C)(C)CC(=O)O` [Betaine Hydrochloride], for which, in series [1] (1:1.5 PAA/PEO), the “T50 in SIF” value was 22 h and the “T50 in SGF” value came to 4 h.

Take `COc1ccc([C@@H]2Sc3ccccc3N(CCN(C)C)C(=O)[C@@H]2OC(C)=O)cc1` [Diltiazem HCl]: the “T50 values in SIF, PAA/Car” value in series [4] was 21. In series [1] (1:1.5 PAA/PEO), the “T50 in SIF” value is 18 h and the “T50 in SGF” value amounted to 8 h. Also, in series [1], the “T50 (time during which 50% of drug has been released from matrix)” value amounted to 18 and the “T50 values in SIF, PAA/PEO” value is on record as 18. The Solubility in series [2] (setting [5]) is 800 mg/mL. For the same molecule, in series [3], the “Log P” value is given as 3.6 and the LogP is listed as 3.6.

Take `CNC(=C[N+](=O)[O-])NCCSCc1ccc(CN(C)C)o1` [Ranitidine HCl]: the “T50 values in SIF, PAA/Car” value in series [4] stood at 15. Moreover, in series [1], the “T50 (time during which 50% of drug has been released from matrix)” value was found to be 11 and the “T50 values in SIF, PAA/PEO” value stood at 11. Moreover, the Solubility result in series [2] (setting [5]) is recorded as “˜200 mg/ml”. Further, in series [3], the “Log P” value was 1.3 and the LogP is listed as 1.3.

Consider `CC(C[N+](C)(C)C)OC(N)=O` (centres unmarked) [Bethanechol Chloride], for which, in series [1], the T10 was found to be 10 h, the T50 came to 55 h and the “Comments (interaction with PAA)” value is reported as “Forms insoluble”. Also, in series [1] (1:1.5 PAA/PEO), the “T50 in SIF” value worked out at 55 h and the “T50 in SGF” value worked out at 24 h.

Turning to `Cc1ncc(C[n+]2csc(CCO)c2C)c(N)n1` [Thiamine HCl], the “T50 values in SIF, PAA/Car” value in series [4] is 7.5. Also, in series [1], the T10 is reported as 1 h; the T50 amounted to 7.5 h; the “T50 values in SIF, PAA/PEO” value is listed as 7.5. The “Release behaviour (in words)” value in series [1] (permanently positively charged molecules, 1:1.5 PAA/PEO) is given as “slightly fast release”. Moreover, in series [2] (setting [6]), the Solubility was 1000 mg/mL.

Source of the values: patent US20040091528A1, “Soluble drug extended release system” (Yamanouchi Pharma Technologies, Inc., priority 2002, published 2004).
